Experimental data published in patent publication US4351763A, “Pharmacologically active peptides” (Eli Lilly and Company, priority 1981, dated 1982).
Where a SMILES comes first, the peptide text is derived from it. [ ]: non-standard residue; d: D form. Phe(4-F) = N[C@@H](Cc1ccc(F)cc1)C(=O)O; NMeM = CN[C@@H](CCSC)C(=O)O

Each molecule was assayed on mouse (assay: mouse hot plate test (analgesic activity)). Settings: hot plate 52° C., 15 minutes after administration, latency until jump.
Type: in vivo
Method: In this test, a mouse is placed inside an upright acrylic cylinder comprising, as its base, a hot plate surface which is maintained at 52° C. The mouse is given, orally or by subcutaneous injection, a predetermined amount of test compound dissolved or suspended in a suitable carrier, and, 15 minutes after administration of the test compound, the mouse is placed on the hot plate surface. The latency in seconds until the mouse jumps from the hot plate surface is measured. […] This must occur in a dose range which produces no motor incoordination or incapacitation. The following Table records the ED50 results obtained from this test.
`CSCC[C@@H](C(N)=O)N(C)C(=O)[C@H](Cc1ccc(F)cc1)NC(=O)CNC(=O)[C@@H](C)NC(=O)[C@@H](N)Cc1ccc(O)cc1` [Example 1, L-Tyrosyl-D-alanylglycyl-L-p-fluorophenylalanyl-L-(N^α -methyl)methioninamide] was tested, and the “Analgesic Activity, Hot Plate Test ED50, mg./kg., subcutaneous” value (shortened to “Analgesic Activity, Hot Plate Test ED50”) was 0.023 mg/kg.
In the case of `COc1ccc([C@H](NC(=O)[C@H](Cc2ccc(F)cc2)NC(=O)CNC(=O)[C@@H](C)NC(=O)[C@@H](N)Cc2ccc(O)cc2)C(N)=O)cc1` [Example 2, L-Tyrosyl-D-alanylglycyl-L-p-fluorophenylalanyl-L-p-methoxyphenylglycinamide], the “Analgesic Activity, Hot Plate Test ED50” value is reported as 1.04 mg/kg.
In the case of `C[C@@H](NC(=O)[C@@H](N)Cc1ccc(O)cc1)C(=O)NCC(=O)N[C@@H](Cc1ccc(F)cc1)C(=O)N[C@@H](C(N)=O)c1ccccc1` [Example 3 D-Pgl, L-Tyrosyl-D-alanyl-glycyl-L-p-fluorophenylalanyl-D-phenylglycinamide], the “Analgesic Activity, Hot Plate Test ED50” value is reported as 0.103 mg/kg.
With `C[C@@H](NC(=O)[C@@H](N)Cc1ccc(O)cc1)C(=O)NCC(=O)N[C@@H](Cc1ccc(F)cc1)C(=O)N[C@H](C(N)=O)c1ccccc1` [Example 3 L-Pgl, L-Tyrosyl-D-alanyl-glycyl-L-p-fluorophenylalanyl-L-phenylglycinamide] the “Analgesic Activity, Hot Plate Test ED50” value was 0.063 mg/kg.
With `CSCC[C@@H](C(N)=O)N(C)C(=O)[C@H](Cc1ccc(F)cc1)NC(=O)CNC(=O)[C@H](NC(=O)[C@@H](N)Cc1ccc(O)cc1)[C@H](C)O` [Example 4, L-Tyrosyl-D-threonylglycyl-L-p-fluorophenylalanyl-L-(N^α -methyl)methioninamide] (H-Y[dT]G[Phe(4-F)][NMeM]-NH2) the “Analgesic Activity, Hot Plate Test ED50” value was 0.088 mg/kg.
